# Structures can show the parent of a compound that is named as a salt. Where two headings read alike, the source gives them in different places.
# Tests used:
# MDCK cells = test: crystal violet cell adhesion (CVCA) cell toxicity assay
# Solubility in water = format: physicochemical; settings: water or physiological buffers
# [1] = Canis lupus familiaris, MDCK, read-out: EC50 (μM), Active Compound
SMILES,EC50 (MDCK cells; [1]) [µM],melting point,also measured
"COC(=O)[C@H](CCCCN1C(=O)C2C3(C)C(=O)C(C)(C(c4ccccc4)=C3c3ccccc3)C2(Br)C1=O)NC(C)=O (stereo partly drawn) [oCOM-41, Methyl (2S)-2-acetamido-6-(3a-bromo-4,7-dimethyl-1,3,8-trioxo-5,6-diphenyl-1,3,3a,4,7,7a-hexahydro-2H-4,7-methanoisoindol-2-yl)hexanoate]",> 100,,
"CC(C)(C)OC(=O)N[C@@H](CCCCN1C(=O)C2C3(C)C(=O)C(C)(C(c4ccccc4)=C3c3ccccc3)C2(Br)C1=O)C(=O)O (stereo partly drawn) [oCOm-27, (2S)-2-tert-butoxycarbonylamino-6-(3a-bromo-4,7-dimethyl-1,3,8-trioxo-5,6-diphenyl-1,3,3a,4,7,7a-hexahydro-2H-4,7-methanoisoindol-2-yl) hexanoic acid]",,87 to 92 °C,
"CC12C(=O)C(C)(C(c3ccccc3)=C1c1ccccc1)C1([S+]([O-])c3ccccc3)C(=O)N(c3ccccc3)C(=O)C21 (centres unmarked) [oCOm-5, 3a-Phenylsulfinyl-3a,4,7,7a-tetrahydro-4,7-dimethyl-2,5,6-triphenyl-4,7-methano-1H-isoindole-1,3,8(2H)-trione]",,186 °C,
"CC12C(=O)C(C)(C(c3ccccc3)=C1c1ccccc1)C1(Br)C(=O)N(CCCCCC(=O)O)C(=O)C21 (centres unmarked) [oCOM-38, 6-(3a-bromo-4,7-dimethyl-1,3,8-trioxo-5,6-diphenyl-1,3,3a,4,7,7a-hexahydro-2H-4,7-methanoisoindol-2-yl)-hexanoic Acid]",> 100,,
"CCOC(=O)[C@@H](N)CCCCN1C(=O)C2C3(C)C(=O)C(C)(C(c4ccccc4)=C3c3ccccc3)C2(Br)C1=O (stereo partly drawn) [oCOm-32, Ethyl (2S)-2-amino-6-(3a-bromo-4,7-dimethyl-1,3,8-trioxo-5,6-diphenyl-1,3,3a,4,7,7a-hexahydro-2H-4,7-methanoisoindol-2-yl)hexanoate Trifluoroacetic Acid Salt]",> 100,,solubility (in words) (Solubility in water): water soluble
"CC12C(=O)C(C)(C(c3ccccc3)=C1c1ccccc1)C1(Br)C(=O)N(CCCC[C@H](N)C(=O)O)C(=O)C21 (stereo partly drawn) [oCOm-28, (2S)-2-Amino-6-(3a-bromo-4,7-dimethyl-1,3,8-trioxo-5,6-diphenyl-1,3,3a,4,7,7a-hexahydro-2H-4,7-methanoisoindol-2-yl)hexanoic Acid Trifluoroacetic Acid Salt]",> 100,,solubility (in words) (Solubility in water): water soluble
"CN(C)C(=O)[C@@H](N)CCCCN1C(=O)C2C3(C)C(=O)C(C)(C(c4ccccc4)=C3c3ccccc3)C2(Br)C1=O (stereo partly drawn) [oCOM-36, N,N-Dimethyl (2S)-2-amino-6-(3a-bromo-4,7-dimethyl-1,3,8-trioxo-5,6-diphenyl-1,3,3a,4,7,7a-hexahydro-2H-4,7-methanoisoindol-2-yl)-hexanamide Trifluoroacetic Acid Salt]",> 100,,
"Cc1c2c(c(C)c(-c3ccccc3)c1-c1ccccc1)C(=O)N(CCNC(=O)OC(C)(C)C)C2=O [BP-20, Tert-Butyl (2-(4,7-dimethyl-1,3-dioxo-5,6-diphenylisoindolin-2-yl)ethyl)carbamate]",,181 to 182 °C,
"Cc1c2c(c(C)c(-c3ccccc3)c1-c1ccccc1)C(=O)N(CCN(CCNC(=O)OC(C)(C)C)C(=O)OC(C)(C)C)C2=O [BP-22, Tert-Butyl (3-((tert-butoxycarbonyl)amino)ethyl)(2-(4,7-dimethyl-1,3-dioxo-5,6-diphenylisoindolin-2-yl)ethyl)carbamate]",,202 to 205 °C,
"CC12C(=O)C(C)(C(c3ccccc3)=C1c1ccccc1)C1(Br)C(=O)N(c3ccc(O)c([N+](=O)[O-])c3)C(=O)C21 (centres unmarked) [oCOm-11, 3a-Bromo-3a,4,7,7a-tetrahydro-4,7-dimethyl-2-(4-hydroxy-3-nitrophenyl)-5,6-diphenyl-4,7-methano-1H-isoindole-1,3,8(2H)-trione]",,207 °C (dec.),
"Cc1nnc([C@@H](N)CCCCN2C(=O)C3C4(C)C(=O)C(C)(C(c5ccccc5)=C4c4ccccc4)C3(Br)C2=O)o1 (stereo partly drawn) [oCOM-45, (1S)-1-Amino-5-(3a-bromo-4,7-dimethyl-1,3,8-trioxo-5,6-diphenyl-1,3,3a,4,7,7a-hexahydro-2H-4,7-methanoisoindol-2-yl)-1-(5-methyl-1,3,-oxadiazol-2-yl)pentane Trifluoroacetic Acid Salt]",> 100,,
"CC(=O)OCCN1C(=O)c2c(C)c(-c3ccccc3)c(-c3ccccc3)c(C)c2C1=O [BP-16, 4,7-Dimethyl-2-(2-acetoxyethyl)-5,6-diphenyl-1H-isoindole-1,3(2H)-dione]",,155 °C,
"Cc1c2c(c(C)c(-c3ccccc3)c1-c1ccccc1)C(=O)N(CCNCCN)C2=O [BP-23, 2-(2-(2-Aminoethyl)aminoethyl)-4,7-dimethyl-5,6-diphenyl-1H-isoindole-1,3,8(2H)-diione Bis-trifluoroacetate Salt]",,,"EC50 (MDCK cells; read-out: EC50 (μM), Inactive Compound, MDCK cells, inactive debromo or CO depleted analogues, 37° C.): > 100 µM"
"CC12C(=O)C(C)(C(c3ccccc3)=C1c1ccccc1)C1(Cl)C(=O)N(c3ccccc3)C(=O)C21 (centres unmarked) [oCOm-2, 3a-Chloro-3a,4,7,7a-tetrahydro-4,7-dimethyl-2,5,6-triphenyl-4,7-methano-1H-isoindole-1,3,8(2H)-trione]",,182 to 184 °C,
"CC12C(=O)C(C)(C(c3ccccc3)=C1c1ccccc1)C1(S(=O)(=O)c3ccccc3)C(=O)N(c3ccccc3)C(=O)C21 (centres unmarked) [oCOm-6, 3a-Phenylsulfonyl-3a,4,7,7a-tetrahydro-4,7-dimethyl-2,5,6-triphenyl-4,7-methano-1H-isoindole-1,3,8(2H)-trione]",,106 °C,
"CC12C(=O)C(C)(C(c3ccccc3)=C1c1ccccc1)C1(Sc3ccccc3)C(=O)N(c3ccccc3)C(=O)C21 (centres unmarked) [oCOm-4, 3a-Phenylthio-3a,4,7,7a-tetrahydro-4,7-dimethyl-2,5,6-triphenyl-4,7-methano-1H-isoindole-1,3,8(2H)-trione]",,193 °C,
"Cc1c2c(c(C)c(-c3ccccc3)c1-c1ccccc1)C(=O)N(CCC(=O)NCCNC(=O)OC(C)(C)C)C2=O [BP-18, Tert-Butyl (2-(3-(4,7-dimethyl-1,3-dioxo-5,6-diphenylisoindolin-2-yl)propanamido)ethyl)carbamate]",,183 to 185 °C,
"Cc1c2c(c(C)c(-c3ccccc3)c1-c1ccccc1)C(=O)N(c1ccc(O)c([N+](=O)[O-])c1)C2=O [BP-11, 2-(4-Hydroxy-3-nitrophenyl)-4,7-dimethyl-5,6-diphenyl-1H-isoindole-1,3(2H)-dione]",,> 250 °C,
"Cc1noc([C@@H](N)CCCCN2C(=O)C3C4(C)C(=O)C(C)(C(c5ccccc5)=C4c4ccccc4)C3(Br)C2=O)n1 (stereo partly drawn) [oCOM-43, (1S)-1-amino-5-(3a-bromo-4,7-dimethyl-1,3,8-trioxo-5,6-diphenyl-1,3,3a,4,7,7a-hexahydro-2H-4,7-methanoisoindol-2-yl)-1-(3-methyl-1,2,4-oxadiazol-5-yl)pentane Trifluoroacetic Acid Salt]",> 100,,
"CC(=O)OC[C@H]1O[C@@H](Oc2ccc(N3C(=O)c4c(C)c(-c5ccccc5)c(-c5ccccc5)c(C)c4C3=O)cc2)[C@H](OC(C)=O)[C@@H](OC(C)=O)[C@@H]1OC(C)=O [BP-14, N-(4-O-(2,3,4,6-tetra-O-acetyl-β-D-glucopyranosyl)phenyl)-3,6-dimethyl-4,5-diphenyl-3,6-phthalimide]",,113 to 115 °C,
"Cc1c2c(c(C)c(-c3ccccc3)c1-c1ccccc1)C(=O)N(CCN)C2=O [BP-21, 2-(4,7-Dimethyl-1,3-dioxo-5,6-diphenylisoindolin-2-yl)ethanaminium 2,2,2-trifluoroacetate, reference compound]",,,"EC50 (MDCK cells; Canis lupus familiaris, MDCK, read-out: EC50 (μM), Inactive Compound): 21 µM"

# — patent US11072584B2, “Carbon monoxide releasing norbornenone compounds” (OTAGO INNOVATION LIMITED, priority 2015, dated 2021)
